Data published in the supplement of paper PMC3974653.
Counter-ions that a name gives are not always drawn.

System: MTT (mouse pheochromocytoma)
Experiment: IC50 of cell viability (ATP content)
Settings: (24 or 48 h)
In short: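 Each well of a white 1536-well plate received 5 µl of MTT mouse pheochromocytoma cells at 200,000 cells/ml in DMEM containing 5% FBS and 1% horse serum. After overnight culture at 37°C, 5% CO2, cells were exposed for 24 or 48 hrs to 23 nl of library compound in DMSO, pinned at 8 final concentrations from 0.5 nM to 46 µM. CellTiter-Glo luminescence was read after 15 minutes, and IC50 was obtained from a four-parameter logistic fit of signals normalised to positive-control and DMSO wells.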

| SMILES | IC50 of cell viability [µM] |
| --- | --- |
| C[C@@H]1C[C@@H]2[C@H]3C[C@@H](F)\C4=C\C(=O)\C=C/[C@]4(C)[C@@]3(Cl)[C@@H](O)C[C@@]2(C)[C@@H]1C(=O)COC(=O)C(C)(C)C [Clocortolone pivalate] | > 46 |
| CC1(C)CCC(NC(=O)[C@@H](N)CCC(=O)O)CC1 [CR 2249] | > 46 |
| COc1ccc([S+](=O)([O-])Nc2nnc(CC(C)C)s2)cc1 [GLYSOBUZOLUM] | > 46 |
| O=C(O)c1cc(O)c(O)c(O)c1 [Gallic acid] | > 46 |
| Clc1ccc([C@H](Cn2ccnc2)OCc2c(Cl)cccc2Cl)c(Cl)c1 [Isoconazole] | > 46 |
| CC[C@@H]1C(=O)OC[C@@H]1Cc1cncn1C [PILOCARPINE] | > 46 |
| C[C@H]1C[C@H]2[C@@H]3CCC4=CC(=O)C=C[C@]4(C)[C@@]3(F)[C@@H](O)C[C@]2(C)[C@@]1(O)C(=O)CO [Betamethasone] | > 46 |
| O=C1CN(/N=C/c2ccc(-c3ccc([N+](=O)[O-])cc3)o2)C(=O)N1 [DANTROLENE] | > 46 |
| Cn1cc(NC(=O)c2cc(NC(=O)c3cc(NC=O)cn3C)cn2C)cc1C(=O)NCCC(=N)N [DISTAMYCIN A] | > 46 |
| COc1cc2nc(N3CCN(C(=O)[C@H]4COc5ccccc5O4)CC3)nc(N)c2cc1OC.C[S+](=O)([O-])O [Doxazosin mesylate] | > 46 |
| O=[N+]([O-])c1ccccc1 [Nitrobenzene] | > 46 |
| O=[N+]([O-])c1cc([As](=O)(O)O)ccc1O [Roxarsone] | > 46 |
| ClC1=CC\2=C(OC3=C(C=CC=C3)\N=C2N4CCNCC4)C=C1 [AMOXAPINE] | > 46 |
| C/N=C(\NCc1ccccc1)[NH2+]C.C/N=C(\NCc1ccccc1)[NH2+]C.O=S(=O)([O-])[O-] [Bethanidine Sulfate (2:1)] | > 46 |
| CO[C@H]1C[C@@H]2CC[C@@H](C)[C@@](O)(O2)C(=O)C(=O)N2CCCC[C@H]2C(=O)O[C@H]([C@H](C)C[C@@H]2CC[C@@H](OCCO)[C@H](OC)C2)CC(=O)[C@H](C)C=C(C)[C@@H](O)[C@@H](OC)C(=O)[C@H](C)C[C@H](C)/C=C/C=C/C=C1C [EVEROLIMUS] | > 46 |
| COc1cc(C(=S)N2CCOCC2)cc(OC)c1OC [Tritiozina] | > 46 |
| C=CCOc1cc(Cl)ccc1C(=O)NCCN(CC)CC [ALLOCLAMIDE HYDROCHLORIDE] | > 46 |
| CCC(C(=O)NC(=O)NC(C)=O)c1ccccc1 (stereo not given) [ACETYLPHENETURIDE (CRAMPOL)] | > 46 |
| CCCCCCCCCCCCCCCCCC(=O)OCC(O)CO (stereo not given) [GLYCERYL MONOSTEARATE] | > 46 |
| COC(=O)c1ccccc1C(=O)c1ccc(OCCN2CCCCC2)cc1 [Pitofenona] | > 46 |
| O.O.[Na+].[Na+].[O]=[Cr](=[O])([O-])[O][Cr](=[O])(=[O])[O-] [Sodium Dichromate Dihydrate] | > 46 |
| CCNC(=O)/C=C/c1cccc(Br)c1 [CINROMIDUM] | > 46 |
| CCCCCCCCCCCCCCCCCC(=O)OCCO [Glycol stearate] | > 46 |
| COc1ccc(C(=O)CCC(=O)O)c2ccccc12 [Menbutone] | > 46 |

| SMILES | IC50 of cell viability [µM] |
| --- | --- |
| C[C@H]1C[C@H]2[C@@H]3C[C@H](F)C/4=C/C(=O)/C=C\[C@]4(C)[C@@]3(F)[C@@H](O)C[C@]2(C)[C@@]1(OC(C)=O)C(=O)COC(C)=O [Diflorasone diacetate] | > 46 |
| COC1C\C(C[N+](C)(C)C1)=C(/C2=CC=CS2)C3=CC=CS3 (stereo not given) [TIMEPIDIUM BROMIDE] | > 46 |
| N\C1=N\C2=C(N=C[N]2COC(CO)CO)C(=O)N1 [Ganciclovir] | > 46 |
| Cn1cc(C(=O)[C@@H]2CCc3[nH]cnc3C2)c2ccccc21 [RAMOSETRON HYDROCHLORIDE] | > 46 |
| CCC1OC(=O)C(C)[C@@H](O[C@H]2C[C@@](C)(OC)C(O)C(C)O2)C(C)[C@@H](O[C@@H]2OC(C)CC(N(C)C)C2O)[C@@](C)(O)CC(C)C(=O)[C@@H](C)C(O)[C@]1(C)O (stereo not given in full) [ERYTHROMYCIN] | > 46 |
| COc1cc(N)c(Cl)cc1C(=O)N[C@@H]1CCN(CCCOc2ccc(F)cc2)C[C@H]1OC [Cisapride] | > 46 |
| CC(=O)OC\C1=C(\[N@]2[C@@H](SC1)[C@H](N)C2=O)C(O)=O [Cephalosporanic acid, 7-amino] | > 46 |
| CN1CCN(CC(=O)N2c3ccccc3C(=O)Nc3cccnc32)CC1 [PIRENZEPINE] | > 46 |
| O=C1c2cccc3c2[C@@H](CCC3)CN1[C@@H]1CN2CCC1CC2 [PALONOSETRON HYDROCHLORIDE] | > 46 |
| C[Se]CCC(N)C(=O)O (stereo not given) [SELENOMETHIONINE, SE-75] | > 46 |
| CCCC(=O)O[C@@]1(CC[C@H]2C3C[C@H](F)\C4=C\C(=O)\C=C/C4(C)[C@@]3(F)[C@@H](O)CC12C)C(=O)COC(C)=O (stereo not given in full) [DIFLUPREDNATE] | > 46 |
| CN(C)CCc1c[nH]c2cccc(OP(=O)(O)O)c12 [Psilocybin] | > 46 |
| COc1cc(CCN)cc(OC)c1OC [Mescaline] | > 46 |
| CCCCC[C@H](O)/C=C/[C@@H]1[C@@H](C/C=C\CCCC(=O)O)[C@@H](O)C[C@H]1O [Dinoprost tromethamine] | > 46 |
| CCN(CCCCOC(=O)c1ccc(OC)c(OC)c1)[C@@H](C)Cc1ccc(OC)cc1 [Mebeverine hydrochloride] | > 46 |
| COc1ccc(-c2cc(=S)ss2)cc1 [ANETHOLE TRITHIONE] | > 46 |
| BrC1=C2N=CC=NC2=CC=C1N\C3=N\CCN3 [UK 14,304] | > 46 |
| CCCCCCCCOc1ccccc1C(=O)Nc1ccc(C(=O)OCC[N+](C)(CC)CC)cc1 [OCTYLONIUM BROMIDE] | > 46 |
| CC(C)CCCC(C)CCCC(C)CCCCC(C)CCCC(C)CCCC(C)C (stereo not given) [HEXAMETHYLTETRACOSANE] | > 46 |
| OC[C@@H]1O[C@@H](OC2=CC\3=C(OC(=O)\C=C3)C=C2O)[C@H](O)[C@H](O)[C@@H]1O [Esculin Hydrate] | > 46 |
| N#CCCN.N#CCCN.O=C(O)/C=C/C(=O)O [3-Aminopropionitrile fumarate] | > 46 |
| COC1=CC=C(C=C1O)C/2=C/C(=O)C3=C(O)C=C(O[C@H]4OC(COC5OC(C)C(O)C(O)[C@H]5O)C(O)C(O)C4O)C=C3O2 (stereo not given in full) [DIOSMIN] | > 46 |
| [O]=[Bi][O]C(=O)[O][Bi]=[O] [Bismuth subcarbonate] | > 46 |
| CC(=O)Oc1cc2c(s1)CCN(C(C(=O)C1CC1)c1ccccc1F)C2 (stereo not given) [Prasugrel Hydrochloride] | > 46 |

| SMILES | IC50 of cell viability [µM] |
| --- | --- |
| CN1C(=O)CC[S+](=O)([O-])C1c1ccc(Cl)cc1 (stereo not given) [CHLORMEZANONE] | > 46 |
| C=C1CC[C@H](O)C/C1=C/C=C1\CCC[C@]2(C)[C@@H]([C@H](C)CCCC(C)C)CC[C@@H]12 [CHOLECALCIFEROL] | > 46 |
| CN1CCN2c3ccccc3Cc3ccccc3C2C1 (stereo not given) [MIANSERIN] | > 46 |
| c1ccc2[nH]ccc2c1 [INDOLUM] | > 46 |
| O=C(O)c1ccccn1 [CHROMIUM PICOLINATE] | > 46 |
| O=C(NNCNNC(=O)c1ccncc1)c1ccncc1 [Metazida] | > 46 |
| O=C([O-])c1cc(O)c2c3nc4ccccc4oc-3cc(=O)c2n1 [PIRENOXINE] | > 46 |
| COC(c1ccccc1)(c1ccccc1)C(Oc1nc(C)cc(C)n1)C(=O)O (stereo not given) [AMBRISENTAN] | > 46 |
| CN1CCC(=C2c3ccccc3CC(=O)c3sccc32)CC1 [KETOTIFEN] | > 46 |
| CCCCCCOC(=O)c1cccnc1 [HEXYL NICOTINATE] | > 46 |
| Nc1nccs1 [AMINOTHIAZOLE] | > 46 |
| Cc1cc(C(=O)NCCc2ccc([S+](=O)([O-])NC(=O)NN3CCCCCC3)cc2)no1 [Glisoxepide] | > 46 |
| Cc1ccc2c(c1)[C@]13CCCC[C@@H]1[C@@H](C2)N(C)CC3 [Dimemorfan phosphate] | > 46 |
| Fc1ccc(C2CCNCC2COc2ccc3c(c2)OCO3)cc1 (stereo not given) [Paroxetine] | > 46 |
| O=C([O-])c1cc(/N=N/c2ccc(O)c(C(=O)[O-])c2)ccc1O [OLSALAZINE SODIUM] | > 46 |
| CC1(C)OC2CO[C@]3(CO[S+](N)(=O)[O-])OC(C)(C)OC3C2O1 (stereo not given in full) [TOPIRAMATE] | > 46 |
| CC(=O)Nc1c(I)c(C(=O)N[C@H]2[C@H](O)[C@H](O)[C@H](CO)O[C@@H]2O)c(I)c(N(C)C(C)=O)c1I [Metrizamide] | > 46 |
| COc1cc(C)c(Cc2cnc(N)nc2N)cc1OC [ORMETOPRIM] | > 46 |
| CC(=O)OC[C@H]1O[C@@H](O[C@H]2[C@H](O)[C@@H](OC(=O)c3ccccc3C(=O)O)[C@H](O)O[C@@H]2COC(C)=O)[C@H](O)[C@@H](OC(=O)c2ccccc2C(=O)O)[C@@H]1O [Cellulose Acetate Phthalate] | > 46 |
| COCC1=C(C(=O)OC(C)OC(=O)OC(C)C)N2C(=O)[C@@H](NC(=O)/C(=N/OC)c3csc(N)n3)[C@H]2SC1 (stereo not given in full) [CEFPODOXIME PROXETIL] | > 46 |
| CCOC(=O)C1=C(C)NC(C)=C(C(=O)OCC)C1c1ccccc1/C=C\C(=O)OC(C)(C)C [Lacidipine] | > 46 |
| CCCCCc1cc(O)c2c(c1)OC(C)(C)c1ccc(C)cc1-2 [Cannabinol] | > 46 |
